Test results published in patent US7585839B2, “Medical uses of intercellular communication facilitating compounds” (Zealand Pharma A/S, priority 2001, dated 2009).
[ ]: non-standard residue; d: D form. Hyp = O=C(O)[C@@H]1C[C@@H](O)CN1

How the values were obtained:
[1] = system: connexin 43 in keratinocytes; settings: keratinocytes of middel aged and elderly people; cited from earlier work
[2] = system: cerulein-induced acute pancreatitis; settings: 100 mg/kg orally; pancreatitis group 19%; cited from earlier work
GJIC = settings: 10(−10) to 10(−6) M; cited from earlier work
[3] = system: calcium-induced arrythmias; experiment: Calcium-induced arrhythmia model in mice (CaCl2-induced 2nd degree AV-block); assay type: in vivo; settings: for CaCl2 mice In vivo, % / CaCl2 mice Score: calcium chloride induced arrythmia model; for In vivo activity: maximal effect, increase in time until 2nd degree AV-block relative to vehicle treated mice, i.v.
Method: The antiarrhythmic effects of compounds of this invention were tested in an in vivo model of calcium-induced arrythmias according to the model of Lynch et al.^[37]. […]. Commercial solutions of hypnorm and midazolam were diluted 1:1 in distilled water and one part diluted Hypnorm® is mixed with one part diluted midazolam.
The anaesthesia was induced by s.c. administration in a dose of 0.05-0.075 μl/10 gram mouse. An i.v. cannula was inserted into the tail vein. The lead II ECG signal was recorded continuously by positioning of a stainless steel ECG electrodes on the right forelimb and on the left hind limb. The ground electrode was placed on the right hind limb. The signal was amplified (×5.000-10.000) and filtered (0.1-150 Hz) via a Hugo Sachs Electronic model 689 ECG module. The analogue signal was digitised via a 12 bit data acquisition board (Data Translation model DT321) and sampled at 1000 Hz using the Notocord HEM 3.1 software for Windows NT. After a 10-min equilibration period, the test sample of drug was injected into the tail vein. Mice pre-treated with vehicle were tested as a measure of the control level in untreated animals. The injection volume was 100 μl in all experiments. Infusion of CaCl2 (30 mg/ml, 0.1 ml/min≈100 mg/kg/min (calciumchlorid-2-hydrat, Riedel-de Haën, Germany)) was started 3 min after i.v. administration of drug or vehicle.
The time lag to onset of 2nd degree AV-block was determined as the time from the start of CaCl2 infusion until the first arrhythmic event occured. An event of 2nd degree AV-block was defined as intermittent failure of the AV conduction characterised by a P-wave without the concomitant QRS complex.
Responses were expressed relative to the time until 2nd degree AV-block occurred in vehicle treated mice.

[4] = In vitro plasma and serum stability, rabbit; assay type: in vitro ADME; settings: 37° C., 0.1 mg/ml
Method: (§1) The stability of peptides is analysed in serum and plasma. The peptides are incubated at 37° C. in plasma or serum and samples taken at approx. 9 regular intervals between t=0 and t=156 min are analysed by HPLC.
This is done by subsequent injections of the drug, plasma, and a co-injection with the drug and the plasma, followed by optimisation of the LC method parameters until a satisfactory separation is obtained. Three parallel experiments are performed for each plasma type. 100 ml of peptide is mixed with 900 ml plasma at t=0 and incubated at 37° C. (drug-plasma mixture conc. 0.1 mg/ml). Samples of 100 ml of the drug-plasma mixture are removed at appropriate intervals and the degradation stopped by precipitation of the sample with 10 ml MeCN:TFA 50:50 v/v. A control plasma sample without the drug treated in the same manner is also taken. The plasma samples are centrifuged for 15 min. at 12,000 rpm (Eppendorf centrifuge) at ambient temperature. The resulting supernatant solution is transferred to 300 ml HP autosamler vials and analyzed by HPLC. The samples are analyzed in the following order: blank, the peptide at 0.1 mg/mL, the plasma without the peptide, the three parallel samples for t=0, the three parallel samples for t=5 min. the three parallel samples for t=10 min. etc. […]

[5] = In vitro plasma and serum stability, human; assay type: in vitro ADME; settings: for T½, PLASMA, HEPARIN HUMAN: 37° C., 0.1 mg/ml
Method: as §1
This is done by subsequent injections of the drug, plasma, and a co-injection with the drug and the plasma, followed by optimisation of the LC method parameters until a satisfactory separation is obtained. Three parallel experiments are performed for each plasma type. 100 ml of peptide is mixed with 900 ml plasma at t=0 and incubated at 37° C. (drug-plasma mixture conc. 0.1 mg/ml). Samples of 100 ml of the drug-plasma mixture are removed at appropriate intervals and the degradation stopped by precipitation of the sample with 10 ml MeCN:TFA 50:50 v/v. A control plasma sample without the drug treated in the same manner is also taken. The plasma samples are centrifuged for 15 min. at 12,000 rpm (Eppendorf centrifuge) at ambient temperature. The resulting supernatant solution is transferred to 300 ml HP autosamler vials and analyzed by HPLC. The samples are analyzed in the following order: blank, the peptide at 0.1 mg/mL, the plasma without the peptide, the three parallel samples for t=0, the three parallel samples for t=5 min. the three parallel samples for t=10 min. etc. And finally the three parallel samples for t=0 are repeated to make sure that there have been no degradation or other failure during the analyses. The sample concentrations (peak height in mAU) are plotted vs. time and fitted to a function describing a mono exponential decay (Excel).

human osteoblastic cells = experiment: DDT-induced uncoupling in human osteoblast cells, Lucifer Yellow microinjection; assay type: cell-based; settings: 13 μM, 60 minutes; control 14.5 cells
Method: Human osteoblast cells: Cells were isolated from human bone marrow obtained by puncture of the posterior iliac spine of healthy volunteers (aged 20-36): 10-15 ml marrow material was collected in 15 ml PBS+Ca, Mg (Life Technologies, Cat.No. 14040) with 100 U/ml Heparin (Sigma, Cat.No. H-3149). The mononuclear fraction of the marrow was isolated on a Lymphoprep gradient (Nycomed Pharma, Cat.No. 1001967), by centrifugation at 2200 rpm for 30 min. After harvesting, the mononuclear fraction was washed once with culture medium and centrifuged at 1800 rpm for 10 min. Subsequently cells were counted and plated in culture medium at 8×10^6 cells/100 mm dish. hOB medium (all reagents obtained from Life Technologies): MEM w/o Phenol Red w/Glutamax (Cat.No. 041-93013) supplemented with 10% heat inactivated fetal calf serum (Cat.No. 10106) and 0.1% Penicillin/Streptomycin (Cat.No. 15140). Medium was changed the following day and the cells were cultured at 37° C. in 5%CO2 with medium change every 7 days. After 3-4 weeks of culture the cells had reached 70% confluence. The medium was then supplemented with 100 nM Dexamethasone (Sigma, Cat.No. D-4902) for 7 days. Cells were then plated for video imaging experiments: a 25 mm #1 glass coverslip was placed in a 35 mm dish (or each well of a 6-well multidish), cells were plated at 2.5×10^5 cells/coverslip and cultured for 2-3 days before use. […]

[6] = system: phosphoinositol turnover in neonatal rat cardiomyocytes; experiment: Phosphoinositol turnover in primary cardiomyocyte cultures; assay type: cell-based
Method: Neonatal Wistar rats (1-2 days old) are used. Hank's calcium- and magnesium-free balanced salt solution, buffered with 10 mM HEPES is used for washing during cell separation procedures. The hearts are excised, the ventricles isolated and the tissue cut into small pieces. The myocardial cells are isolated by stepwise enzymatic degradation with collagenase 0.05%, as described by ^[35]. After repeated rounds of centrifugation and washing, the precipitated cells are resuspended in culture medium M199 with Earle's salt, 10% NCS, penicillin (75 U/mL), and streptomycin (75 U/mL) and pre-plated in a Petri dish for 90 minutes. The non-adherent cells are collected in the culture medium and plated in multidishes at 2.5*10^5 cells/well. The cultures are kept in a water-saturated CO2-incubator at 37° C. The cardiomyocyte cultures are used for analyses after 6-7 days.
Cardiomyocyte cultures are incubated for 48 hours in culture medium containing 4 μCi/mL myo-[2-^3H]inositol to label the inositol phospholipids. On the day of analysis the medium is replaced by a buffer solution containing lithium and incubated at 37° C., as described by Meier et al.^[36]. After at least five minutes this buffer is replaced by the same volume of buffer containing test compound and incubated for exactly 20 minutes. The reaction is stopped by rapid replacement of the buffer by ice cold 4% v/v perchloric acid (PCA) and incubation for at least 20 minutes at 0° C. The PCA-extract is neutralised and the [^3H]inositol phosphates are separated by anion-exchange chromatography using Amprep™ columns containing 100 mg SAX Quaternary amine. The [^3H]inositol mono-phosphates are eluted and radioactivity in the fraction measured by liquid scintillation counting.
Before adding test substances to the cultures, the cells are depleted of glucose and oxygen by incubating them in a N2-atmosphere in glucose-free lithium-buffer for 10 minutes at 37° C. Control cells are incubated likewise only at normal atmospheric conditions and in a buffer containing glucose.

[7] = system: membranes from rabbit heart; settings: cited from earlier work
[8] = system: regional ischemia in the rabbit; settings: cited from earlier work

Row | Molecule | CaCl2 mice In vivo, % [3] | CaCl2 mice Score [3] | In vivo activity [3] | T½, PLASMA, HEPARIN RABBIT [4] | Human plasma half life [5] [h] | T½, PLASMA, HEPARIN HUMAN [5] | other results
1 | COc1cc2c(cc1O)C[C@H]1c3c(cc(O)c(OC)c3-2)CCN1C [boldine] | – | – | – | – | – | – | optimal concentration for increase of the content of connexin 43 [1]: 50 nM
2 | Nc1nc(N)nc(-c2cc(Cl)ccc2Cl)n1 [irsogladine, 6-(2,5-dichlorophenyl)-2,4-diamino-1,3,5-triazine] | – | – | – | – | – | – | number of Cx32 grains, % of the normal control value [2]: 70%; effect on GJIC, compound alone (GJIC): did not affect GJIC
3 | cyclo(GAG[Hyp]PYN) [Compound 36] | 57 +/− 8% | 2 | +++ (+++ refers to >60% increase in time until arrhythmia) | 30 hrs ± 8% | 13 | 9 hrs ± 1% | –
4 | Clc1ccc(C(c2ccc(Cl)cc2)C(Cl)(Cl)Cl)cc1 [DDT, 1,1-bis(p-chlorophenyl)-2,2,2-trichlorethane, reference compound] | – | – | – | – | – | – | cellular coupling, median number of cells with dye (human osteoblastic cells): 7 cells
5 | cyclo(GAG[Hyp]PYQ) [Compound 35] | 48 +/− 14% | 2 | ++ (++ refers to 30-50% increase in time until arrhythmia) | 14 hrs ± 2% | 15 | 15 hrs ± 1% | –
6 | H-GAG[Hyp]PY-NH2 [AAP10] | 76 +/− 21% | 3 | +++ (+++ refers to >60% increase in time until arrhythmia) | – | – | – | EC50 relative to the EC50 value for Compound 2 ([6]; metabolic stress induced by anoxia and glucose deprivation): 10 fold; EC50 relative to the EC50 value for Compound 2 ([6]; normoxia): 200 fold; value given for AAP10 by Dhein et al. [7]: 0.2 nM; concentration of maximal effect on dispersion of the epicardial activation-recovery interval [8]: 10^−8 mol/l
